# According to PubChem BioAssay AID1963869 (Molecular Pharmacology Branch, DTP, NCI, 2024):
# Tested on: KRAS patient-derived spheroids with HUVEC/MSC, viability
# Experiment: Anticancer human tumor 323965-272-R-J2-PDC patient-derived pancreatic carcinoma cell line growth inhibition [KRAS2]
# Settings: for IC50: curve of first compound; for viability, T/C: stronger effect = lower value
# How it was run: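 Combination screen of spheroid viability in tumor-cell co-cultures with endothelial (HUVEC) and mesenchymal stem cell stroma. Each agent was tested in half-log dilutions, topping at clinical Cmax or at 10 microM without a known Cmax.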
# [1] = second compound 0.1 µM, first compound 0.000316 µM
# [2] = second compound 0.1 µM, first compound 0.001 µM
# [3] = second compound 0.1 µM, first compound 0.00316 µM
# [4] = second compound 0.1 µM, first compound 0.01 µM
# [5] = second compound 0.1 µM, first compound 0.0316 µM
# [6] = second compound 0.316 µM, first compound 0.000316 µM
# [7] = second compound 0.316 µM, first compound 0.001 µM
# [8] = second compound 0.316 µM, first compound 0.00316 µM
# [9] = second compound 0.316 µM, first compound 0.01 µM
# [10] = second compound 0.316 µM, first compound 0.0316 µM
# [11] = second compound 1 µM, first compound 0.000316 µM
# [12] = second compound 1 µM, first compound 0.001 µM
# [13] = second compound 1 µM, first compound 0.00316 µM
# [14] = second compound 1 µM, first compound 0.01 µM
# [15] = second compound 1 µM, first compound 0.0316 µM
# [16] = second compound 3.16 µM, first compound 0.000316 µM
# [17] = second compound 3.16 µM, first compound 0.001 µM
# [18] = second compound 3.16 µM, first compound 0.00316 µM
# [19] = second compound 3.16 µM, first compound 0.01 µM
# [20] = second compound 3.16 µM, first compound 0.0316 µM
# [21] = second compound 10 µM, first compound 0.000316 µM
# [22] = second compound 10 µM, first compound 0.001 µM
# [23] = second compound 10 µM, first compound 0.00316 µM
# [24] = second compound 10 µM, first compound 0.01 µM
# [25] = second compound 10 µM, first compound 0.0316 µM
# [26] = second compound 0.1 µM, first compound 0.1 µM
# [27] = second compound 0.316 µM, first compound 0.1 µM
# [28] = second compound 1 µM, first compound 0.1 µM
# [29] = second compound 3.16 µM, first compound 0.1 µM
# [30] = second compound 10 µM, first compound 0.1 µM
# 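Further: spheroids exposed to agents for 7 days.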
# 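Wherever viability, T/C is given: 100% = DMSO vehicle control viability.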
compound,measurement,setting,value
CC(=O)Nc1cccc(-n2c(=O)n(C3CC3)c(=O)c3c(Nc4ccc(I)cc4F)n(C)c(=O)c(C)c32)c1 + COc1cc2nc(C)nc(NC(C)c3cc(N)cc(C(F)(F)F)c3)c2cc1OC1CCOC1,IC50,second compound 0.1 µM,1.6 nM
same,IC50,second compound 0.316 µM,0.949 nM
same,IC50,second compound 1 µM,0.713 nM
same,IC50,second compound 3.16 µM,0.703 nM
same,IC50,second compound 10 µM,1.09 nM
same,"viability, T/C","second compound 0.1 µM, first compound 0.0001 µM",84.1%
same,"viability, T/C",[1],67.3%
same,"viability, T/C",[2],54.5%
same,"viability, T/C",[3],43.7%
same,"viability, T/C",[4],32.6%
same,"viability, T/C",[5],23.7%
same,"viability, T/C","second compound 0.316 µM, first compound 0.0001 µM",67.8%
same,"viability, T/C",[6],59.6%
same,"viability, T/C",[7],48.9%
same,"viability, T/C",[8],39.6%
same,"viability, T/C",[9],31.9%
same,"viability, T/C",[10],22%
same,"viability, T/C","second compound 1 µM, first compound 0.0001 µM",73.5%
same,"viability, T/C",[11],60.4%
same,"viability, T/C",[12],43.5%
same,"viability, T/C",[13],37.4%
same,"viability, T/C",[14],28.5%
same,"viability, T/C",[15],20.8%
same,"viability, T/C","second compound 3.16 µM, first compound 0.0001 µM",73%
same,"viability, T/C",[16],57.9%
same,"viability, T/C",[17],44.6%
same,"viability, T/C",[18],36.3%
same,"viability, T/C",[19],28.7%
same,"viability, T/C",[20],18.4%
same,"viability, T/C","second compound 10 µM, first compound 0.0001 µM",80.7%
same,"viability, T/C",[21],68.2%
same,"viability, T/C",[22],49.2%
same,"viability, T/C",[23],36.3%
same,"viability, T/C",[24],26.1%
same,"viability, T/C",[25],12.7%
CN(C)C/C=C/C(=O)Nc1cc2c(Nc3ccc(F)c(Cl)c3)ncnc2cc1O[C@H]1CCOC1 + COc1cc2nc(C)nc(NC(C)c3cc(N)cc(C(F)(F)F)c3)c2cc1OC1CCOC1,IC50,second compound 0.1 µM,> 100 nM
same,IC50,second compound 0.316 µM,> 100 nM
same,IC50,second compound 1 µM,> 100 nM
same,IC50,second compound 3.16 µM,25 nM
same,IC50,second compound 10 µM,14.8 nM
same,"viability, T/C",[1],84.3%
same,"viability, T/C",[2],65.2%
same,"viability, T/C",[3],65.8%
same,"viability, T/C",[4],60.5%
same,"viability, T/C",[5],62.1%
same,"viability, T/C",[26],60.7%
same,"viability, T/C",[6],67.7%
same,"viability, T/C",[7],65.6%
same,"viability, T/C",[8],53.6%
same,"viability, T/C",[9],46.5%
same,"viability, T/C",[10],51.2%
same,"viability, T/C",[27],54.5%
same,"viability, T/C",[11],59.5%
same,"viability, T/C",[12],94.3%
same,"viability, T/C",[13],74.7%
same,"viability, T/C",[14],73%
same,"viability, T/C",[15],61.3%
same,"viability, T/C",[28],69.1%
same,"viability, T/C",[16],74.3%
same,"viability, T/C",[17],71.7%
same,"viability, T/C",[18],59.5%
same,"viability, T/C",[19],54.2%
same,"viability, T/C",[20],47.8%
same,"viability, T/C",[29],49.2%
same,"viability, T/C",[21],92.1%
same,"viability, T/C",[22],75.8%
same,"viability, T/C",[23],59.3%
same,"viability, T/C",[24],49.4%
same,"viability, T/C",[25],49.1%
same,"viability, T/C",[30],48.4%
COC(=O)c1ccc2c(C(=Nc3ccc(N(C)C(=O)CN4CCN(C)CC4)cc3)c3ccccc3)c(O)[nH]c2c1 + COc1cc2nc(C)nc(NC(C)c3cc(N)cc(C(F)(F)F)c3)c2cc1OC1CCOC1,IC50,second compound 0.1 µM,> 10000 nM
same,IC50,second compound 0.316 µM,> 10000 nM
same,IC50,second compound 1 µM,> 10000 nM
same,IC50,second compound 3.16 µM,> 10000 nM
same,IC50,second compound 10 µM,> 10000 nM
same,"viability, T/C",[5],92.9%
same,"viability, T/C",[26],102%
same,"viability, T/C","second compound 0.1 µM, first compound 0.316 µM",102%
same,"viability, T/C","second compound 0.1 µM, first compound 1 µM",106%
same,"viability, T/C","second compound 0.1 µM, first compound 3.16 µM",92.6%
same,"viability, T/C","second compound 0.1 µM, first compound 10 µM",86%
same,"viability, T/C",[10],89.3%
same,"viability, T/C",[27],81%
same,"viability, T/C","second compound 0.316 µM, first compound 0.316 µM",84.1%
same,"viability, T/C","second compound 0.316 µM, first compound 1 µM",78.8%
same,"viability, T/C","second compound 0.316 µM, first compound 3.16 µM",78.1%
same,"viability, T/C","second compound 0.316 µM, first compound 10 µM",74.6%
same,"viability, T/C",[15],82.6%
same,"viability, T/C",[28],73.2%
same,"viability, T/C","second compound 1 µM, first compound 0.316 µM",76.8%
same,"viability, T/C","second compound 1 µM, first compound 1 µM",74.6%
same,"viability, T/C","second compound 1 µM, first compound 3.16 µM",70.8%
same,"viability, T/C","second compound 1 µM, first compound 10 µM",68.9%
same,"viability, T/C",[20],77.3%
same,"viability, T/C",[29],77.6%
same,"viability, T/C","second compound 3.16 µM, first compound 0.316 µM",75.6%
same,"viability, T/C","second compound 3.16 µM, first compound 1 µM",81.5%
same,"viability, T/C","second compound 3.16 µM, first compound 3.16 µM",79.3%
same,"viability, T/C","second compound 3.16 µM, first compound 10 µM",75.7%
same,"viability, T/C",[25],90.8%
same,"viability, T/C",[30],86%
same,"viability, T/C","second compound 10 µM, first compound 0.316 µM",77.4%
same,"viability, T/C","second compound 10 µM, first compound 1 µM",72.8%
same,"viability, T/C","second compound 10 µM, first compound 3.16 µM",77.8%
same,"viability, T/C","second compound 10 µM, first compound 10 µM",69.7%
